# Data published in patent publication US20220112538A1, “SPECTROSCOPIC METHODS, REAGENTS AND SYSTEMS TO DETECT, IDENTIFY, AND CHARACTERIZE BACTERIA FOR ANTIMICROBIAL SUSCEPTIBLITY” (priority 2020, published 2022).
# Where two headings read alike, the source gives them in different places.
# Legend:
# Assay type in all cases: cell-based
# [1] = tested on: E. coli 25922; assay: Minimum inhibitory concentration from phenol red 560 nm absorbance peak height; conditions: 1000 CFU/mL E. coli; extrapolated from a linear fit to phenol red peak height
# Description: (§1) This example characterizes the response of E. coli 25922 to Gentamicin. Top: The curves illustrate the response of a test solution that includes 1000 CFU/mL E. coli, the Phenol-Red based reagent described in herein, and Gentamicin GM present at concentrations that are depicted in the legend. The Y axis depicts the height of the phenol red peak at 560 nm, normalized to the starting value.
# as §1, with “described” for “described in”, “value. Bottom: The normalized peak height at 300 minutes, plotted as a function of GM concentration.” for “value.”
# Antimicrobial susceptibility response was characterized. The metabolic activity of the causative pathogen can be suppressed by an effective antimicrobial. Thus, when a candidate antibiotic, present at a test concentration, is combined with the teachings described herein, then we can deduce the effect of that antibiotic on the microorganism. If we combine a series of antibiotic concentrations, then we can deduce the minimum inhibitory concentration. […]
# [2] = tested on: S. aureus (clinical sample); assay: MIC from time required for S. aureus pigment detection versus antibiotic concentration
# Method: FIG. 15: Variation of the time required for pigment detection versus antibiotic concentration for tetracycline plotted against antibiotic concentration. The pathogen concentration is estimated at 8.8×10^6 CFU/mL. For antibiotic concentrations of 2 μg/mL, the time to detection is increased by a factor of >2 compared to the baseline value of about 150 minutes for this pathogen concentration. We set this 2× increase as the criterion for MIC˜other criterion can also be used, but will require a different set of corrections for pathogen concentration. With the MIC at the test pathogen concentration, we apply the correction described above, and find that the rapid test MIC correlates with the CLSI M100 MIC, as depicted in FIG. 23.
# The second factor that complicates a rapid test for MIC is the presence of multiple pathogens in a polymicrobial sample. For example, a polymicrobial sample that is dominated by Enterococcus but in which the S. aureus is the pathogen of concern, the MIC estimated by examining the growth of Rayleigh scattering can be erroneous because of an incorrect correction for pathogen concentration, and because the Rayleigh scattering is dominated by Enterococcus growth. This issue can be mitigated by one of two ways: (a) by flagging all polymicrobial samples & (b) by focusing the response on a signal associated with the pathogen of interest. For example, using the methods described in Example 5, we detect the S. aureus specific pigments, and characterize the time required for the detection of these pigments as a function of antibiotic concentration. This is illustrated in FIG. 15 for a clinical sample containing […], and the antibiotic tetracycline. From this variation, the MIC is estimated as the minimum antibiotic concentration required to increase the time to detection metric by 2× compared to the time to detection metric observed for the media without any antibiotic (which was 150 minutes in this example). And so, the MIC in this example is log (concentration)=0.3, or a concentration of 2 μg/mL. The concentration of S. aureus estimated from the detection time of 150 minutes (and the methods described in Example 8) is 8.8×10^6 CFU/mL. […] This clinical sample also contained Enterococcus (which was evident after isolating individual colonies on a blood Agar plate), but the method described here focuses the MIC metric on the response of S. aureus.
# [3] = tested on: wild type strain of S. aureus; assay: MIC from Rayleigh scattering growth in Cation Adjusted Mueller Hinton Broth, corrected for pathogen concentration; conditions: for MIC: Staphylococcus aureus
# Method: FIG. 21A: Variation of Rayleigh scattering with time for 7 samples containing Cation Adjusted Mueller Hinton Broth (CAMHB), an unknown concentration of a test bacteria (which was identified as S. aureus due to pigment production), and loaded onto 96 well plates at 7 concentrations of the candidate antibiotic Vancomycin, with concentrations starting at 1.25 μg/mL (for Cell 7) and decreasing in steps of 2× for each well down to Cell 1. The data is collected for 8 hours. FIG. 21B: Variation of the fitting parameter a, in the fit equation y=a/[1+exp(−(t−b)/c)], with a non-linear best fit routine is applied to fit this equation to the data depicted on the left. The fitting parameter is plotted against cell#. From this variation, it is estimated that Rayleigh growth becomes negligible at an extrapolated cell # of 4.8, which corresponds to a Vancomycin concentration of 0.19 μg/mL.
# As we observe experimentally, the antimicrobial susceptibility metric MIC is a function of pathogen concentration, as depicted in FIG. 19. Thus, estimates for MIC obtained from a test sample that is at a pathogen concentration lower than the concentration of 2×10^8 CFU/mL (or 0.5 McFarland) specified in the CLSI M100 standard will need to be corrected for this variation to maximize concordance between a rapid test MIC and the CLSI standard. Empirically, we find that the slope of the traces depicted in FIG. 19 scales with the absolute magnitude of the estimated MIC, as depicted in FIG. 20. Thus, an algorithm to correct the MIC for pathogen concentration is to use the empirical observed scaling relationship depicted in FIG. 20, along with the pathogen concentration estimated from the methods described in FIG. 18. […] Separately, the time to detection is measured as 161 minutes, and this returns an S. aureus concentration of 7.5×10^6 CFU/mL.
# We illustrate this process with one example of a wild type strain of S. aureus tested against Vancomycin in Cation Adjusted Mueller Hinton Broth (CAMHB Himedia labs M1657). With CAMHB, the viability of the bacteria is estimated by plotting the Rayleigh scattering factor versus time, and fitting this to an exponential growth function a/[1+exp(−(t−b)/c)], as illustrated in FIG. 21. The growth factor a is then plotted against antibiotic concentration, and from this profile, the concentration at which a approaches zero is estimated as the nominal MIC at the pathogen concentration. Separately, the pathogen concentration is estimated and the MIC is corrected for the pathogen concentration. […] The CLSI M100 breakpoints for Staphylococcus against Vancomycin are >16 μg/mL for resistant and <2 μg/mL for susceptible. Accordingly, this strain of S. aureus is reported as being susceptible to vancomycin, […]
compound,measurement,setting,value
Gentamicin,GM concentration at which the 560 nm peak height does not decrease from the starting value (minimum inhibitory concentration),[1],2.03 µg/mL
CN(C)[C@@H]1C(O)=C(C(N)=O)C(=O)[C@@]2(O)C(O)=C3C(=O)c4c(O)cccc4[C@@](C)(O)[C@H]3C[C@@H]12 [tetracycline],MIC (minimum concentration that increases time to detection by 2×) at the test pathogen concentration,[2]; S. aureus 8.8×10^6 CFU/mL,2 µg/mL
same,MIC as log (concentration),[2]; S. aureus 8.8×10^6 CFU/mL,0.3
same,MIC,"[2]; Staphylococcus aureus, corrected from 8.8×10^6 CFU/mL, read-out: MIC at 0.5 McFarland, estimated by correction for pathogen concentration",2.51 µg/mL
same,increase of time to pigment detection compared to baseline (factor),"[2]; antibiotic 2 μg/mL, baseline about 150 minutes, pathogen 8.8×10^6 CFU/mL",> 2
CN[C@H](CC(C)C)C(=O)N[C@H]1C(=O)N[C@@H](CC(N)=O)C(=O)N[C@H]2C(=O)N[C@H]3C(=O)N[C@H](C(=O)N[C@H](C(=O)O)c4cc(O)cc(O)c4-c4cc3ccc4O)[C@H](O)c3ccc(c(Cl)c3)Oc3cc2cc(c3O[C@@H]2O[C@H](CO)[C@@H](O)[C@H](O)[C@H]2O[C@H]2C[C@](C)(N)[C@H](O)[C@H](C)O2)Oc2ccc(cc2Cl)[C@H]1O [Vancomycin],MIC estimated at the test pathogen concentration (concentration at which Rayleigh growth becomes negligible),"[3]; CAMHB, 8 hours, extrapolated cell # 4.8, S. aureus 7.5×10^6 CFU/mL",0.19 µg/mL
same,MIC,"[3]; 8 h, read-out: MIC estimated at the test pathogen concentration (concentration at which Rayleigh growth becomes negligible), CAMHB, 8 hours, extrapolated cell # 4.8, S. aureus 7.5×10^6 CFU/mL",0.192 µg/mL
same,MIC,"[3]; read-out: CLSI M100 MIC at 0.5 McFarland, estimated by correction for pathogen concentration, corrected from 7.5×10^6 CFU/mL to 0.5 McFarland",0.867 µg/mL
same,resistant or susceptible status by comparison with CLSI M100 breakpoints,"[3]; breakpoints >16 μg/mL resistant, <2 μg/mL susceptible",susceptible
